Measured values: ChEMBL document CHEMBL3132769, “Fragment growing to retain or alter the selectivity of anchored kinase hinge-binding fragments” (Medchemcomm, 2014)

Assays:
[1] = target: Ribosomal protein S6 kinase alpha-4 (Homo sapiens) (UniProt O75676); assay: Inhibition of human full length MSK2 expressed in baculovirus assessed as substrate phosphorylation using fluorescence-labelled peptides as substrate at 9 uM after 90 mins by microfluidic peptide phosphorylation assay
[2] = target: T1, Serine/threonine-protein kinase Sgk3 (Homo sapiens) (UniProt Q96BR1); assay: Inhibition of human full length SGK3 expressed in baculovirus assessed as substrate phosphorylation using fluorescence-labelled peptides as substrate at 95 uM after 90 mins by microfluidic peptide phosphorylation assay
T1 sequence (whole entry): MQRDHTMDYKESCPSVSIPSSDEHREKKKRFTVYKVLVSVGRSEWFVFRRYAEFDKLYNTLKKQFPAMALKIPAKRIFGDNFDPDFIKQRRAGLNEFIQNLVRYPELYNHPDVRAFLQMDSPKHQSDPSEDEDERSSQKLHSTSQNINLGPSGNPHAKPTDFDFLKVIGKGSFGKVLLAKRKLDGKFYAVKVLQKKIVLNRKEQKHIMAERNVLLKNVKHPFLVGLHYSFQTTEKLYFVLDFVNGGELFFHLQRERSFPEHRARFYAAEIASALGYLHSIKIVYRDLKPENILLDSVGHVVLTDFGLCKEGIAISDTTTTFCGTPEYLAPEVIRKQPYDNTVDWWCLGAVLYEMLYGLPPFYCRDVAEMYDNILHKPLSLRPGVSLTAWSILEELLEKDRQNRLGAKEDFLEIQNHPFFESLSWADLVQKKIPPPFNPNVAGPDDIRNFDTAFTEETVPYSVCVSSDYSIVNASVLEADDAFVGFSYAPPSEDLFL

[3] = target: Platelet-derived growth factor receptor alpha (Homo sapiens) (UniProt P16234); assay: Inhibition of human PDGFR alpha catalytic domain expressed in baculovirus assessed as substrate phosphorylation using fluorescence-labelled peptides as substrate at 95 uM after 90 mins by microfluidic peptide phosphorylation assay
[4] = target: Fibroblast growth factor receptor 1 (Homo sapiens) (UniProt P11362); assay: Inhibition of human FGFR1 catalytic domain expressed in baculovirus assessed as substrate phosphorylation using fluorescence-labelled peptides as substrate at 95 uM after 90 mins by microfluidic peptide phosphorylation assay
[5] = target: T2, Interleukin-1 receptor-associated kinase 4 (Homo sapiens) (UniProt Q9NWZ3); assay: Inhibition of human IRAK4 catalytic domain expressed in baculovirus assessed as substrate phosphorylation using fluorescence-labelled peptides as substrate at 0.06 uM after 90 mins by microfluidic peptide phosphorylation assay
T2 sequence (whole entry): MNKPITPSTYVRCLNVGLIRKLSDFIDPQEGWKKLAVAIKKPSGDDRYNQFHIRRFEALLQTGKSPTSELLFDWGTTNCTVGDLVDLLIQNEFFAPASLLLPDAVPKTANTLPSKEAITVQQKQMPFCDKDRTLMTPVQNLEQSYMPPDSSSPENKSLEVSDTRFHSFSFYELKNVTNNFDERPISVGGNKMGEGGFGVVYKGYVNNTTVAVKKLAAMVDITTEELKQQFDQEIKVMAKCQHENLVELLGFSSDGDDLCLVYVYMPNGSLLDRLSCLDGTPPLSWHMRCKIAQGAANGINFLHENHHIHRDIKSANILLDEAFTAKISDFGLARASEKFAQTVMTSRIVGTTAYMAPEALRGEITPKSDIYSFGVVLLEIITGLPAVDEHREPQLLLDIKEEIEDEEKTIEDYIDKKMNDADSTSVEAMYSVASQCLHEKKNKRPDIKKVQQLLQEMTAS

[6] = target: Tyrosine-protein kinase HCK (Homo sapiens) (UniProt P08631); assay: Inhibition of human HCK catalytic domain expressed in baculovirus assessed as substrate phosphorylation using fluorescence-labelled peptides as substrate at 0.1 uM after 90 mins by microfluidic peptide phosphorylation assay
[7] = target: Protein kinase C eta type (Homo sapiens) (UniProt P24723); conditions: 0.1 uM
Description: Inhibition of human truncated PKC eta expressed in baculovirus assessed as substrate phosphorylation using fluorescence-labelled peptides as substrate at 0.1 uM after 90 mins by microfluidic peptide phosphorylation assay

[8] = target: Tyrosine-protein kinase ABL2 (Homo sapiens) (UniProt P42684); assay: Inhibition of human truncated Arg expressed in baculovirus assessed as substrate phosphorylation using fluorescence-labelled peptides as substrate at 420 uM after 90 mins by microfluidic peptide phosphorylation assay
[9] = target: T3, Serine/threonine-protein kinase D1 (Homo sapiens) (UniProt Q15139); assay: Inhibition of human full length PKD1 expressed in baculovirus assessed as substrate phosphorylation using fluorescence-labelled peptides as substrate at 420 uM after 90 mins by microfluidic peptide phosphorylation assay
T3 sequence (whole entry): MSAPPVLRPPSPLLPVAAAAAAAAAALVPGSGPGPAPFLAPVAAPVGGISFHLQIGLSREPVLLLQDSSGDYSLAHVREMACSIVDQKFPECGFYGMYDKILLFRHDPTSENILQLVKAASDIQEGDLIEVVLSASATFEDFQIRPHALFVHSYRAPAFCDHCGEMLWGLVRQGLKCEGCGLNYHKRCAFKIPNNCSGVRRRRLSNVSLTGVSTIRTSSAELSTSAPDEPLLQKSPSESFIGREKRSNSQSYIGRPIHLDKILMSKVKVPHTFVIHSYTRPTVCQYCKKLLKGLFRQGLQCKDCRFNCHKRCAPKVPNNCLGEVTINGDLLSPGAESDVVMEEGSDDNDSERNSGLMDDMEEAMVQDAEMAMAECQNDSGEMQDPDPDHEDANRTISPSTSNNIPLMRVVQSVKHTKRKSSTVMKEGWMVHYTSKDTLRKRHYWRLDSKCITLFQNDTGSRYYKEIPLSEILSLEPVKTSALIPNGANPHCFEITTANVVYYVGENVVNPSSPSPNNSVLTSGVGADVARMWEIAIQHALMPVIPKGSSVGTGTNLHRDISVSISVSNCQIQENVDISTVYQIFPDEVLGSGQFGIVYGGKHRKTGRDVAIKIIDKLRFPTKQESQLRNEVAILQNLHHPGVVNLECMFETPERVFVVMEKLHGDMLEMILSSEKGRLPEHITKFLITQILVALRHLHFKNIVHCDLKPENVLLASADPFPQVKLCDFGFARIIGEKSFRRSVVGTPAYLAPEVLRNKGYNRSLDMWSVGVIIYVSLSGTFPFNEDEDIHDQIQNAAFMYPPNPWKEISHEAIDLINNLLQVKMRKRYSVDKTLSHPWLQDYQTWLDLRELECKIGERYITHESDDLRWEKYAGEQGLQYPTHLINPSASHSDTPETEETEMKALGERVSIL

[10] = target: Ribosomal protein S6 kinase alpha-2 (Homo sapiens) (UniProt Q15349); assay: Inhibition of human full length RSK3 expressed in baculovirus assessed as substrate phosphorylation using fluorescence-labelled peptides as substrate at 2 uM after 90 mins by microfluidic peptide phosphorylation assay
[11] = target: RAF proto-oncogene serine/threonine-protein kinase (Homo sapiens) (UniProt P04049); assay: Inhibition of human truncated c-Raf expressed in baculovirus assessed as substrate phosphorylation using fluorescence-labelled peptides as substrate at 2 uM after 90 mins by microfluidic peptide phosphorylation assay
RAF proto-oncogene serine/threonine-protein kinase (Homo sapiens), sequence (P04049 whole entry, the tested form may be a part): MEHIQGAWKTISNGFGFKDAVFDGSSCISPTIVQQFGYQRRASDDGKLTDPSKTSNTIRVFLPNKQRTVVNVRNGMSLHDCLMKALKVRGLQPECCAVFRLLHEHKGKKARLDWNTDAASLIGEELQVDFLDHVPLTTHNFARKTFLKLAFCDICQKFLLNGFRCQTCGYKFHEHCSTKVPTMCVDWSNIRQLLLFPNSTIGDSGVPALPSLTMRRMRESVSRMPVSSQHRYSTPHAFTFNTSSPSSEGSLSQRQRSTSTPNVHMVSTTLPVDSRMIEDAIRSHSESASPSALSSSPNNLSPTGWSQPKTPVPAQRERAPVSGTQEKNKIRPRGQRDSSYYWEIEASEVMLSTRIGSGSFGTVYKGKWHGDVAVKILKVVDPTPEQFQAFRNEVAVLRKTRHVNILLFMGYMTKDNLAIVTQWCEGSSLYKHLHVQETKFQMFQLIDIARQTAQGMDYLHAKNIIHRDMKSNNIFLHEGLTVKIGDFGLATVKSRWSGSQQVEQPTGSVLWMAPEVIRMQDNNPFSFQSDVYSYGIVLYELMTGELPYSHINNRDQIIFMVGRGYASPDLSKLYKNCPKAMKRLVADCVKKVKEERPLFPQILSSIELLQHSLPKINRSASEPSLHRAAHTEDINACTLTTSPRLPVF

Ribosomal protein S6 kinase alpha-2 (Homo sapiens), sequence (Q15349 whole entry, the tested form may be a part): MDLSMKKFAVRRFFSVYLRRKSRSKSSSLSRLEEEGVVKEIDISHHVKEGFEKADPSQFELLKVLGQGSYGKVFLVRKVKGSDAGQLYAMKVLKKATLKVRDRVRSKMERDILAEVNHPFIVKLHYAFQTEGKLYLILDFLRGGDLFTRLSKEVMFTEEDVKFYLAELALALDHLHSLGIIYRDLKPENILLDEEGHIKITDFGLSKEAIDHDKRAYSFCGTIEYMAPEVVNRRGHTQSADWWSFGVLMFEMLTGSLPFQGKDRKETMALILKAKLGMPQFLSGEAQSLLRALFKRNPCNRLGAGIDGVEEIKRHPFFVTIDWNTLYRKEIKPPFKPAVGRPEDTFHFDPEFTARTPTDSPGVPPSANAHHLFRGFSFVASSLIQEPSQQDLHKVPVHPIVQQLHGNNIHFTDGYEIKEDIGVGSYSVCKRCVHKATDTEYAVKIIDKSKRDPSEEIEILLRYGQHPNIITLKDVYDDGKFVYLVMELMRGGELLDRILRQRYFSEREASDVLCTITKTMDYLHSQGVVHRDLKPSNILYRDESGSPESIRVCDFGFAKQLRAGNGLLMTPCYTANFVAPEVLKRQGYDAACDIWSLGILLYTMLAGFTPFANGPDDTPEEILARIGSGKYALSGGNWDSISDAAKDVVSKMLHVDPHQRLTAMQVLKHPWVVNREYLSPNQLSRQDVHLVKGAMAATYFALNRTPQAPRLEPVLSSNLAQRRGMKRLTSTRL
Tyrosine-protein kinase ABL2 (Homo sapiens), sequence (P42684 whole entry, the tested form may be a part): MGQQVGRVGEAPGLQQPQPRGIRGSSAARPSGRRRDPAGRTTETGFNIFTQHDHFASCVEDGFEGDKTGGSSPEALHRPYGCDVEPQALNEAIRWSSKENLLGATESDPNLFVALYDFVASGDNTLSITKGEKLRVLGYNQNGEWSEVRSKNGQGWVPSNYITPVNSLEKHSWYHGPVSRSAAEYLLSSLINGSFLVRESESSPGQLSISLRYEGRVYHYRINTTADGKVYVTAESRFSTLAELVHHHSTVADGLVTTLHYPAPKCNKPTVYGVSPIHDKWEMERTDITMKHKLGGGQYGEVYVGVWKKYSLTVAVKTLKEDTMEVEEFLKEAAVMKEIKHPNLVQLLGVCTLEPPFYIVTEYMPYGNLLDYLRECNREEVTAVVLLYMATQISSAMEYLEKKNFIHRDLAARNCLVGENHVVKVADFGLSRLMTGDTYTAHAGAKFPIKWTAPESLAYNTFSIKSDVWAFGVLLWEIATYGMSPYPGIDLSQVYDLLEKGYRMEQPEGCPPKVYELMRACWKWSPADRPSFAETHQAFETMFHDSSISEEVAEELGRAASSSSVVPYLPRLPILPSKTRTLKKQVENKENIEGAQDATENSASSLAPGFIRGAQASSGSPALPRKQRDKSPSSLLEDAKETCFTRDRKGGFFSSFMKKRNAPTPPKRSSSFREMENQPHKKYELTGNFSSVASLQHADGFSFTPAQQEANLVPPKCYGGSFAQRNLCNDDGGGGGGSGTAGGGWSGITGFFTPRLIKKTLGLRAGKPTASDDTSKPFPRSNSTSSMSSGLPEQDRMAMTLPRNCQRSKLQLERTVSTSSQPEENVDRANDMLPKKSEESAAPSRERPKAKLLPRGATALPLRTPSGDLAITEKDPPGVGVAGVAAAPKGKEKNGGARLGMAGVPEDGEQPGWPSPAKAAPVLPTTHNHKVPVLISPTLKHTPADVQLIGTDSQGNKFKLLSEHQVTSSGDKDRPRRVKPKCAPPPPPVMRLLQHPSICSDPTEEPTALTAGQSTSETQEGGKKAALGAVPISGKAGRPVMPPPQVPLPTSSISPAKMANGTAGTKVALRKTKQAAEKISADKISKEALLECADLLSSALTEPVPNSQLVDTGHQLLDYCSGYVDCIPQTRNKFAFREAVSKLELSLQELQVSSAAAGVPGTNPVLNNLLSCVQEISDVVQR
Platelet-derived growth factor receptor alpha (Homo sapiens), sequence (P16234 whole entry, the tested form may be a part): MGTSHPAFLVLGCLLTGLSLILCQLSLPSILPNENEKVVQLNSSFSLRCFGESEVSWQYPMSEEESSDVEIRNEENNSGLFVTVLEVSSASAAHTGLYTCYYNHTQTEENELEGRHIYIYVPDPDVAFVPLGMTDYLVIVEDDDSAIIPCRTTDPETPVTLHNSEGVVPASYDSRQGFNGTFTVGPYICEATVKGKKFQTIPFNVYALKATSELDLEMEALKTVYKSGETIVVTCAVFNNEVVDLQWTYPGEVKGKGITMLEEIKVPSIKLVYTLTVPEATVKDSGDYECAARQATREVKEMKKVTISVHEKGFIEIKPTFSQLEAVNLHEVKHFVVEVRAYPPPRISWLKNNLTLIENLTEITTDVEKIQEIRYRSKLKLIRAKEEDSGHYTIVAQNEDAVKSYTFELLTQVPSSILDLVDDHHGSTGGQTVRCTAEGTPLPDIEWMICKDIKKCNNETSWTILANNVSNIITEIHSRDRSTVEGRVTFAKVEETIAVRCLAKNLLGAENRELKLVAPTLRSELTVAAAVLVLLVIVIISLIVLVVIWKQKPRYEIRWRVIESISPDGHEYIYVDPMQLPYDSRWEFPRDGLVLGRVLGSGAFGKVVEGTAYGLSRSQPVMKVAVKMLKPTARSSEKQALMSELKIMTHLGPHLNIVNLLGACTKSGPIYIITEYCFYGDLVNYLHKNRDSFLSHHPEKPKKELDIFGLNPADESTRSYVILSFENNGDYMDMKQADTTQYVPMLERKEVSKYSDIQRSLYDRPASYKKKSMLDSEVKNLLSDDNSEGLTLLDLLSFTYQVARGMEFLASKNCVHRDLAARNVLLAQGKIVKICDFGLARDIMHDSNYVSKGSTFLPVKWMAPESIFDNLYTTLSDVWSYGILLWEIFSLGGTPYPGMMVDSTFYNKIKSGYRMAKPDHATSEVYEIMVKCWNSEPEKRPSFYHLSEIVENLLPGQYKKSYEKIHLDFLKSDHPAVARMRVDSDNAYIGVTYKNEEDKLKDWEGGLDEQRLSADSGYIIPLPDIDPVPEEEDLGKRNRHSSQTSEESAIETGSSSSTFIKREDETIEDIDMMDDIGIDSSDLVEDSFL
Protein kinase C eta type (Homo sapiens), sequence (P24723 whole entry, the tested form may be a part): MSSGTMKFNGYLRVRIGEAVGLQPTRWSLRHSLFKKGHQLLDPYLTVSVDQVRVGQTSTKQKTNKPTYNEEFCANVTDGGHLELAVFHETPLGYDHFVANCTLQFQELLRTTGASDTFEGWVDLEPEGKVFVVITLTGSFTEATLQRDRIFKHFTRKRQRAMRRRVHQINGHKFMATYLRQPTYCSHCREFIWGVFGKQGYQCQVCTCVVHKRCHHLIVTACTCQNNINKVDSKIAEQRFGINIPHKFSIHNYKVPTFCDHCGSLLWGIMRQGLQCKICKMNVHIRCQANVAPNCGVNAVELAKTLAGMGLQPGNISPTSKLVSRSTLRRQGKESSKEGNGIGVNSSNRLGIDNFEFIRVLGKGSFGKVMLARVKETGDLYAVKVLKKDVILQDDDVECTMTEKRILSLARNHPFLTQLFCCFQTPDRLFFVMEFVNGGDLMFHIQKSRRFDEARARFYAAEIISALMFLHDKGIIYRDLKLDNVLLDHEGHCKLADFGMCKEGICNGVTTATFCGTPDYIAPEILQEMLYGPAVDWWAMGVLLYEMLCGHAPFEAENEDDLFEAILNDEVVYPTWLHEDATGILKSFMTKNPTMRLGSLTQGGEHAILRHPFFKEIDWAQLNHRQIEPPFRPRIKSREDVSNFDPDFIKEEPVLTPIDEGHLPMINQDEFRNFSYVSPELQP
Tyrosine-protein kinase HCK (Homo sapiens), sequence (P08631 2-526 limits assumed): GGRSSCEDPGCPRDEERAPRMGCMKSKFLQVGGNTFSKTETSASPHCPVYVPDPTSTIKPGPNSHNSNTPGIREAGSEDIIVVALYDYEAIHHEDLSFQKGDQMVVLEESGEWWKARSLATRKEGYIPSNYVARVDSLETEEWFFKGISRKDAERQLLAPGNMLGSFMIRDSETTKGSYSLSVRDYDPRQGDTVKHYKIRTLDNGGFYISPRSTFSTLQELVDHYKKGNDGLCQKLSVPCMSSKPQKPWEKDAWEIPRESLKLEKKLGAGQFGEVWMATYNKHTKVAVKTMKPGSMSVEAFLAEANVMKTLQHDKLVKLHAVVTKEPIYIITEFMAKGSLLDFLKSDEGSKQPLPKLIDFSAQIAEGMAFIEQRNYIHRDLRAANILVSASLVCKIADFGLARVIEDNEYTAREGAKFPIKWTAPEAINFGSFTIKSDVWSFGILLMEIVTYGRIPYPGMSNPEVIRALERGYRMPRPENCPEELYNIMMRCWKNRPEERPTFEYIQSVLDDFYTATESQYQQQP

For `NCC1CN(c2ncnc3[nH]c4cnccc4c23)CCO1` (stereo unspecified), the inhibition [1] was 52%.
With `NCCc1ccc(-c2ncnc3[nH]cnc23)cc1` the inhibition [2] was 41.5%, the inhibition [3] was 37% and the inhibition [4] was 72%.
`NC1(Cc2ccc(Cl)cc2)CCN(c2ncnc3[nH]ccc23)CC1` showed an inhibition [5] of 0%.
In the case of `C[C@H](CN(C)C)Oc1nc(Nc2cc3cccc(Cl)c3cn2)cnc1C#N`, the inhibition [6] is reported as 4% and the inhibition [7] is reported as 0%.
`c1nc(N2CCOCC2)c2nc[nH]c2n1` gave an inhibition [8] of 54.5% and an inhibition [9] of 70%.
In the case of `NC1CCN(c2ncnc3[nH]ccc23)CC1`, the inhibition [10] is reported as 0% and the inhibition [11] is reported as 7%.
